Values after ≈ are worked out from the molar mass of the structure shown. Where two headings read alike, the source gives them in different places.
Key:
Type in all cases: cell-based
HCC 1806 = test: Inhibition of tumor cell proliferation in vitro (SRB total protein); conditions: Homo sapiens, HCC1806, 72 h, in-house head-to-head, about 72 hours, read-out: IC50
Experimental: (§1) For a typical screening experiment, cells are inoculated into 96 well microtiter plates in 100 μl at plating densities ranging from 5,000 to 40,000 cells/well depending on the doubling time of individual cell lines. After cell inoculation, the microtiter plates are incubated at 37° C., 5% or 10% CO2—depending on the cell line and media—95% air and 100% relative humidity for 24 h prior to addition of experimental drugs. After 24 h, two plates of each cell line are fixed in situ with TCA, to represent a measurement of the cell population for each cell line at the time of drug addition. Following drug addition, the plates are incubated for an additional 48 h at 37° C., 5%/10% CO2, 95% air, and 100% relative humidity. For adherent cells, the assay is terminated by the addition of cold TCA. Cells are fixed in situ by the gentle addition of 50 μl of cold 50% (w/v) TCA (final concentration, 10% TCA) and incubated for 60 minutes at 4° C. The supernatant is discarded, and the plates are washed five times with tap water and air-dried. Sulforhodamine B (SRB) solution (10011) at 0.4% (w/v) in 1% acetic acid is added to each well, and plates are incubated for 10 minutes at room temperature. After staining, unbound dye is removed by washing five times with 1% acetic acid and the plates are air-dried. Bound stain is subsequently solubilized with 10 mM trizma base, and the absorbance is read on an automated plate reader at a wavelength of 515 nm. For suspension cells, the methodology is the same except that the assay is terminated by fixing settled cells at the bottom of the wells by gently adding 50 μl of 80% TCA (final concentration, 16% TCA). Using the seven absorbance measurements [time zero, control growth, and test growth in the presence of drug at the five concentration levels], the percentage growth is calculated at each of the drug concentrations levels.
(§2) Brefeldin A was tested by the NCI for inhibition of tumor cell proliferation in the 60-cell screen. The NCI 60-cell screen was performed essentially as described for FIG. 9. Data available from the NCI database for Brefeldin A was compared with more recent AVP 893 data. […] Several tumor cell lines were cultured in the presence of either AVP 893 or Brefeldin A for about 72 hours before assessing proliferation response by measuring total protein (SRB), as described for FIG. 9. The results of the head-to-head comparisons performed in-house also show substantial variation in the relative proliferative responses of cells to Brefeldin A and AVP 893 in vitro (TABLE 3).

Hs578T = test: as above; conditions: Homo sapiens, Hs-578T
Experimental: as §1, §2

MOLT-4 = test: as above; conditions: Homo sapiens
Experimental: as §1, §2

NCI H-460 = test: as above; conditions: Homo sapiens
Experimental: as §1, §2

OVCAR3 = test: as above; conditions: Homo sapiens
Experimental: as §1, §2

SW480 = test: as above; conditions: Homo sapiens, column Avanir, read-out: IC50 (ng/ml), Avanir
Experimental: as §1, §2

mouse spleen cells = test: Proliferation of IL-4/anti-CD40 Ab-stimulated mouse spleen cells; conditions: read-out: anti-proliferative potency
Experimental: BALB/c spleen cells were cultured for 20 hours in the presence of stimulus+/−AVP 893 (100 ng/ml) and harvested and prepared as described in FIG. 17. Stimulus conditions include: LPS (10 μg/ml), IL-4 (10 ng/ml) plus anti-CD40 Ab (100 ng/ml), PMA (10 ng/ml) plus ionomycin (100 nM), or Con A (5 μg/ml). […] This experiment was carried out as described for FIG. 21, except that different AVP compounds with high (AVP 893, 5 nM), medium (AVP 26297, 50 nM), and low (AVP 25630, 500 nM) anti-proliferative potency were tested and compared. AVP 893 was tested at 1, 10, and 100 ng/ml; AVP 26297 was tested at 1, 10, 100, and 1000 ng/ml; AVP 25630 was tested at 10, 100, and 1000 ng/ml.

Rab6 = Rab6 expression
HSV-2 = HSV-2 plaque formation in Vero cells
Experimental: An important potential consequence of blocking normal vesicle movement between the ER and golgi is the inhibition of viral protein maturation and intracellular propagation. Most viruses rely on the classical ER-to-golgi pathway for assimilating its proteins and, ultimately, infectivity. Brefeldin A causes the accumulation of viral proteins in the ER-golgi. The capacity of AVP 893 to inhibit viral propagation was tested in vitro by infecting Vero cells with HSV-2 and observing the effect of increasing concentrations of drug (FIG. 44). Vero cells (1 million/ml) were cultured overnight and inoculated with about 150 PFU of live type 2 Herpes Virus (HSV-2, ATCC) about 1 hour after addition of AVP 893. After 48 hours, media was removed and the cells washed with saline and stained with Biological Plaque Stain for 20 min. One ml of water was added and the liquid removed before quantifying virus by enumerating PFU.

[1] = system: viruses from families likely to utilize the golgi; test: In vitro testing of other viral families; conditions: Table 4
Experimental: The effect of AVP 893 on the spread of viral infection was further investigated. AVP 893 (at 300 ng/ml) was applied 16 hr prior to virus inoculation. Time points shown in FIG. 45 represent the hours after virus inoculation. […] In addition to the immunocytochemistry work shown in FIG. 45, extensive in vitro plaque assays were performed on HSV-1 and -2, as well as other families of virus that use the golgi in their life cycle (see Table 2).
Representative viruses from families likely to utilize the golgi were tested. […] (data not shown).

[2] = column Avanir, read-out: IC50 (ng/ml), Avanir
[3] = column NCI, read-out: IC50 (ng/ml), NCI
[4] = in-house head-to-head, about 72 hours, SRB, read-out: IC50

O=C(Nc1ccc(-c2nc3cc(NC(=O)C4CCCCC4)ccc3[nH]2)cc1)C1CCCCC1 [AVP 893]
IC50 (HCC 1806): 4 ng/mL (≈ 9 nM)
IC50 (Hs578T; [2]): 2 ng/mL (≈ 4.5 nM)
IC50 (Hs578T; [3]): < 10 ng/mL
IC50 (Hs578T; [4]): < 1 ng/mL
IC50 (MOLT-4; [2]): 0.001 ng/mL (≈ 0.00225 nM)
IC50 (MOLT-4; [3]): < 10 ng/mL
IC50 (MOLT-4; [4]): 30 ng/mL (≈ 67.5 nM)
IC50 (NCI H-460; NCI-H460, column Avanir, read-out: IC50 (ng/ml), Avanir): > 2000 ng/mL
IC50 (NCI H-460; NCI-H460, column NCI, read-out: IC50 (ng/ml), NCI): 400 ng/mL (≈ 900 nM)
IC50 (NCI H-460; NCI-H460, in-house head-to-head, about 72 hours, SRB, read-out: IC50): > 3000 ng/mL
IC50 (OVCAR3; OVCAR-3, column Avanir, read-out: IC50 (ng/ml), Avanir): 200 ng/mL (≈ 450 nM)
IC50 (OVCAR3; OVCAR-3, column NCI, read-out: IC50 (ng/ml), NCI): 1000 ng/mL (≈ 2250 nM)
IC50 (SW480): 1500 ng/mL (≈ 3370 nM)
IC50 (mouse spleen cells): 5 nM
Rab6 expression (Rab6; 3T3 and PMA/ionomycin-stimulated spleen cells, overnight): suppressed Rab6 expression
Rab6 staining (Rab6; immunocytochemistry, even after 18 hrs): not diminished nor significantly altered
plaque formation (HSV-2; HSV-2, 48 hours): suppressed plaque formation at all concentrations tested
concentration giving total block of plaque formation (HSV-2; about 150 PFU HSV-2, 48 hours): 300 ng/mL
spread of other viral families [1]: inhibited
